In US20160060234A1, “CYSTEINE DERIVATIVE” (AJINOMOTO CO., INC., priority 2010, published 2016):
pIC50: −log10 of the molar value. Structures can show the parent of a compound that is named as a salt. One block for each molecule: values may come before it.

Columns and labels:
[1] = Time-course stability test at 70° C. of cis form-trans form mixture (Experimental Example 2); assay type: physicochemical; details: 5 days; for residual ratio (%) at pH 4: 25 mM phosphate buffer pH 4, 70° C.; for residual ratio (%) at pH 4 / residual ratio (%) at pH 5 / residual ratio (%) at pH 6 / residual ratio (%) at pH 7: HPLC area vs day 0; for preservation stability (in words, from Table 1): 25 mM phosphate buffer pH 4-7, 70° C.; for residual ratio (%) at pH 5: 25 mM phosphate buffer pH 5, 70° C.; for residual ratio (%) at pH 6: 25 mM phosphate buffer pH 6, 70° C.; for residual ratio (%) at pH 7: 25 mM phosphate buffer pH 7, 70° C.
Protocol: A time-course stability test was performed using about 1:1 mixture (20 mg/20 ml) of cis form-trans form of N-Ac-CP2Et obtained in Synthetic Example 7 in a 25 mM phosphate buffer at pH 4, 5, 6, and 7 and 70° C. in the same manner as in Examples Experimental Example 1. The test was performed for 5 days. As an index of a time-course stability test at 70° C., the area value of a target substance 5 days after start of the stability test relative to the area value of the target substance on day 0 after start of the stability test was calculated in % on an HPLC chart and used as a residual ratio.
Detector: ultraviolet absorption spectrophotometer (measurement wavelength; 210 nm) Column: Inertsil ODS-3 (High Pressure type, GL Sciences) (particle size 3 μm, inner diameter 4.6 mm, length 250 mm) eluent: A: 0.05M KH2PO4 (adjusted to pH2 with 85% H3PO4), B: MeOH gradient conditions: 0-5 minute: A=100, −25 minute: A:B=50:50, −35 minute: A:B=50:50, −40 minute: A=100, −45 minute: A=100 flow rate: 0.8 mL/minute column temperature: 30° C. sample concentration: 25-50 mg/dL injection volume: 20 μL retention time (minute): N-Ac-CP2Et (cis form): 31.9, N-Ac-CP2Et (trans form): 33.9

B16 melanoma = assay: Eumelanin production suppression test; assay type: cell-based; details: Mus musculus, 72 h, 3 days culture, absorbance of medium at 450 nm, control = 100%, read-out: 50% melanin production suppressing concentration
Protocol: B16 melanoma was cultured in DMEM (Dulbecco's Modified Eagle Medium) (high glucose, containing 10% serum). Confluent cells were detached with trypsin, and plated on a 96 well plate. After cell adhesion to the plate the next day, the medium was changed to DMEM added with each evaluation sample (control (no sample addition), cysteine derivatives of each Synthetic Example) at a predetermined evaluation concentration (diluted from 10 mM according to sample), and the cells were cultured for 3 days. The 96 well plate was shaken for 5 minutes in a plateshaker, and the absorbance of the medium at 450 nm was measured by a microplatereader. The absorbance after 3 days from the addition of a predetermined concentration of each sample was shown in relative percentage to the measured value (absorbance) of the control (no sample addition) as 100%, and the concentration necessary for suppressing eumelanin production in each sample by 50% was calculated as 50% melanin production suppressing concentration relative to the amount of eumelanin in the control as 100%.
The microplatereader used in this eumelanin production suppression test was Benchmark microplatereader, manufactured by BIORAD.

[2] = Time-course stability test at 70° C. (Experimental Example 1); assay type: physicochemical; details: 25 mM phosphate buffer, pH 4, 5, 6 and 7, 70° C., 4 days, HPLC
Protocol: A time-course stability test was performed using N-Ac-CP2Et obtained in Synthetic Example 1 and N-Ac-CP obtained in Synthetic Example 13 in a 25 mM phosphate buffer at pH 4, 5, 6, and 7 and 70° C. The test was performed for 4 days. As comparison targets, CP obtained in Reference Example 1, and CP2Et obtained in Reference Example 2 were used. For the time-course stability test, HPLC; (pump) HITACHI L-7100, (Autosampler) HITACHI L-2200, and (detector) HITACHI L-4000 were used.
As an index of a time-course stability test at 70° C., the area value of a target substance after time course changes relative to the area value of the target substance on day 0 after start of the stability test was calculated in % on an HPLC chart and used as a residual ratio.
detector: ultraviolet absorption spectrophotometer (measurement wavelength; 210 nm) column: Inertsil ODS (GL Sciences) (particle size 3 μm, inner diameter 4.6 mm, length 250 mm) eluent: 4 mL/L aqueous phosphoric acid solution:methanol=3:1 (v/v) flow rate: 0.8 mL/minute column temperature: 50° C. sample concentration: 100 mg/dL injection volume: 20 μL retention time (minute): CP: 4.6, 4.8 (diastereomer mixture), N-Ac-CP: 8.0 […]

SMILES: CCOC(=O)C1(C)SCC(C(=O)O)N1C(C)=O (centres unmarked) (as salt: salt) [Synthetic Example 1, N-acetyl-2-methylthiazolidine-2,4-dicarboxylic acid 2-ethyl ester]
melting point: 138 to 141 °C

SMILES: CCOC(=O)C1(C)SCC(C(=O)O)N1C(C)=O (stereo not drawn) [N-Ac-CP2Et (cis form), N-acetyl-2-methylthiazolidine-2,4-dicarboxylic acid 2-ethyl ester]
residual ratio (%) at pH 4 [1]: 69.9%
preservation stability (in words, from Table 1) [1]: good preservation stability
residual ratio (%) at pH 5 [1]: 93.5%
residual ratio (%) at pH 6 [1]: 96.9%
residual ratio (%) at pH 7 [1]: >99.9%

SMILES: CCOC(=O)C1(C)SCC(C(=O)O)N1C(C)=O (stereo not drawn) [N-Ac-CP2Et (trans form), N-acetyl-2-methylthiazolidine-2,4-dicarboxylic acid 2-ethyl ester]
residual ratio (%) at pH 4 [1]: 95.8%
preservation stability (in words, from Table 1) [1]: good preservation stability
residual ratio (%) at pH 5 [1]: 99.8%
residual ratio (%) at pH 6 [1]: >99.9%
residual ratio (%) at pH 7 [1]: >99.9%

Second part, led by results:

pIC50 (B16 melanoma): 2.34
SMILES: CCOC(=O)C1(C)SCC(C(=O)O)N1C(C)=O (centres unmarked) [Synthetic Example 1, N-acetyl-2-methylthiazolidine-2,4-dicarboxylic acid 2-ethyl ester]
preservation stability (residual ratio, FIGS. 1 to 4) [2]: preservation stability better than CP and CP2Et

pIC50 (B16 melanoma): 2.26
SMILES: CC(=O)N1C(C(=O)O)CSC1(C)C(=O)O (centres unmarked) [Synthetic Example 13, N-acetyl-2-methylthiazolidine-2,4-dicarboxylic acid]
preservation stability (residual ratio, FIGS. 1 to 4) [2]: preservation stability better than CP and CP2Et

pIC50 (B16 melanoma): 2.58
SMILES: CCOC(=O)C1CSC(C)(C(=O)OCC)N1C(C)=O (centres unmarked) [Synthetic Example 19, N-acetyl-2-methylthiazolidine-2,4-dicarboxylic acid 2,4-diethyl ester]

pIC50 (B16 melanoma): 2.85
SMILES: CCOC(=O)C1(C)SCC(C(=O)OC(C)C)N1C(C)=O (centres unmarked) [Synthetic Example 20, N-acetyl-2-methylthiazolidine-2,4-dicarboxylic acid 2-ethyl 4-isopropyl ester]
